Results as given in patent US20250059205A1, “Heterocyclic Compounds and Methods of Use” (AMGEN INC., priority 2021, published 2025).

Columns and labels:
[1] = molecular target: GDP-bound KRAS protein (aa 1-169), containing both G12D and C118A amino acid substitutions (Homo sapiens, UniProt P01116, C118A/G12D); experiment: KRAS G12D Coupled Nucleotide Exchange Assay; format: biochemical; details: 2 h compound pre-incubation
Protocol: Following compound pre-incubation, purified SOS protein (aa 564-1049) and GTP (Roche 10106399001) were added to the assay wells and incubated for an additional 30 min. […] The assay plates were then read on a PerkinElmer EnVision Multilabel Reader, using AlphaScreen® technology, and data were analyzed using a 4-parameter logistic model to calculate IC50 values.

[2] = test system: Phosphorylation of ERK1/2 in AsPC-1 cells; experiment: Phospho-ERK1/2 MSD Assay (AsPC-1 cells); format: cell-based; details: Homo sapiens, ASPC1, 2 h, 2 hours treatment, read-out: p-ERK (AsPC-1 cells) IC50
In short: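 Read-out: MSD electrochemiluminescent detection of phosphorylated ERK1/2 in whole-cell lysates, fitted to a 4-parameter logistic curve for IC50. Prior to lysis, AsPC-1 cells (25,000 per well) received a 2 h compound dose-response at 37 °C.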

[3] = test system: Phosphorylation of ERK1/2 in A-427 cells; experiment: Phospho-ERK1/2 MSD Assay (A-427 cells); format: cell-based; details: Homo sapiens, A-427, 2 h, 2 h treatment, read-out: p-ERK (A427 cells) IC50
In short: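 ERK1/2 phosphorylation measured by Meso Scale whole-cell lysate assay after A-427 cells were exposed to a titration of compound for 2 h at 37 °C.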

[4] = molecular target: His-tagged KRAS G12D protein (Homo sapiens, UniProt P01116, G12D); experiment: KRAS G12D TR-FRET Assay; format: binding
His-tagged KRAS G12D protein, sequence (P01116 1-188 isoform P01116-2 G12D): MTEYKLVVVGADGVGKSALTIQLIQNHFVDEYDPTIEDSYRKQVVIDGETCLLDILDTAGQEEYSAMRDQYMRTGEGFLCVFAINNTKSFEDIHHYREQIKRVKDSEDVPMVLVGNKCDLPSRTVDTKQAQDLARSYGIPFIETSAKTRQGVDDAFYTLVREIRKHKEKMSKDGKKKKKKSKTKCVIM

GDP-bound KRAS protein (aa 1-169), containing both G12D and C118A amino acid substitutions, sequence (P01116 1-169 isoform P01116-2 G12D/C118A): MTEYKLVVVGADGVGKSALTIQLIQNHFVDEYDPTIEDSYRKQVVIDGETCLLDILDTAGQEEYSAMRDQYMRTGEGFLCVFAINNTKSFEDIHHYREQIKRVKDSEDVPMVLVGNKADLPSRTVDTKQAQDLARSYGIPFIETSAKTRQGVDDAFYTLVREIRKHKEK

Row | SMILES | Avg 2 h Coupled Exchange IC50 [1] | IC50 [2] | IC50 [3] | IC50 [4]
1 | Nc1ccc(C2CC2)c(-c2ccc3c(N4C[C@H]5CC[C@@H](C4)N5)nc(OC[C@@]45CCCN4C[C@H](F)C5)nc3c2F)n1 [Example 224, 6-(4-((1R,5S)-3,8-diazabicyclo[3.2.1]octan-3-yl)-8-fluoro-2-(((2R,7aS)-2-fluorotetrahydro-1H-pyrrolizin-7a(5H)-yl)methoxy)quinazolin-7-yl)-5-cyclopropylpyridin-2-amine] | 41 nM | > 10000 nM | 7620 nM | 274 nM
2 | C#Cc1c(F)ccc2cc(O)cc(-c3cc4nc(OC[C@@]56CCCN5C[C@H](F)C6)nc(N5C[C@H]6CC[C@@H](C5)N6)c4cc3F)c12 [Example 181, 4-(4-((1R,5S)-3,8-diazabicyclo[3.2.1]octan-3-yl)-6-fluoro-2-(((2R,7aS)-2-fluorotetrahydro-1H-pyrrolizin-7a(5H)-yl)methoxy)quinazolin-7-yl)-5-ethynyl-6-fluoronaphthalen-2-ol] | 1 nM | 18 nM | 3 nM | 1 nM
3 | C#Cc1c(F)ccc2cc(O)cc(-c3c(F)cc4c(N5C[C@@H]6CC[C@H]5CN6)nc(OC[C@@]56CCCN5C[C@H](F)C6)nc4c3F)c12 [Example 188, 4-(4-((15,4S)-2,5-diazabicyclo[2.2.2]octan-2-yl)-6,8-difluoro-2-(((2R,7aS)-2-fluorotetrahydro-1H-pyrrolizin-7a(5H)-yl)methoxy)quinazolin-7-yl)-5-ethynyl-6-fluoronaphthalen-2-ol] | 2 nM | 16 nM | 2 nM | 2 nM
4 | CCc1cccc2cc(O)cc(-c3ccc4c(N5C[C@H]6CC[C@@H](C5)N6)nc(OC[C@@]56CCCN5C[C@H](F)C6)nc4c3F)c12 [Example 169, 4-(4-((1R,5S)-3,8-diazabicyclo[3.2.1]octan-3-yl)-8-fluoro-2-(((2R,7aS)-2-fluorotetrahydro-1H-pyrrolizin-7a(5H)-yl)methoxy)quinazolin-7-yl)-5-ethylnaphthalen-2-ol] | 5 nM | 72 nM | 9 nM | 5 nM
5 | Cc1ccc2cnn(C)c2c1-c1c(Cl)cc2c(N3C[C@H]4CC[C@@H](C3)N4)nc(OC[C@@]34CCCN3C[C@H](F)C4)nc2c1F [Example 76, 4-((1R,5S)-3,8-diazabicyclo[3.2. 1]octan-3-yl)-6-chloro-7-(1,6-dimethyl-1H-indazol-7-yl)-8-fluoro-2-(((2R,7aS)-2-fluorotetrahydro-1H-pyrrolizin-7a(5H)-yl)methoxy) quinazoline] | 8 nM | 674 nM | 191 nM | 10 nM
6 | CN1C[C@H](F)C[C@H]1COc1nc(N2[C@@H]3CNC[C@H]2COC3)c2ccc(-c3cc(O)cc4ccccc34)c(F)c2n1 [Example 6, 4-(4-((1R,5S)-3-oxa-7,9-diazabicyclo[3.3. 1]nonan-9-yl)-8-fluoro-2-(((2S,4R)-4-fluoro-1-methylpyrrolidin-2-yl)methoxy)quinazolin-7-yl)naphthalen-2-ol] | 22 nM | 5130 nM | 2310 nM | 49 nM
7 | Cc1ccc2[nH]nc(C)c2c1-c1c(Cl)cc2c(N3C[C@H]4CC[C@@H](C3)N4)nc(OC[C@@]34CCCN3C[C@H](F)C4)nc2c1F [Example 207, 4-((1R,5S)-3,8-Diazabicyclo[3.2.1]octan-3-yl)-6-chloro-7-(3,5-dimethyl-1H-indazol-4-yl)-8-fluoro-2-(((2R,7aS)-2-fluorotetrahydro-1H-pyrrolizin-7a(5H)-yl)methoxy)quinazoline] | 7 nM | 348 nM | 202 nM | 7 nM
8 | CCc1c(F)ccc2cc(O)cc(-c3ccc4c(N5CC6CCC(C5)N6)nc(OC[C@@]56CCCN5C[C@H](F)C6)nc4c3)c12 [Example 111] | 1 nM | 51 nM | 28 nM | 2 nM
9 | Cc1cccc2cccc(-c3ccc4c(N5[C@@H]6CC[C@H]5CNC6)nc(OC[C@@]56CCCN5C[C@H](F)C6)nc4c3F)c12 [Example 28, 4-((1R,5S)-3,8-diazabicyclo[3.2. 1]octan-8-yl)-8-fluoro-2-(((2R,7aS)-2-fluorotetrahydro-1H-pyrrolizin-7a(5H)-yl)methoxy)-7-(8-methylnaphthalen-1-yl)quinazoline] | 44 nM | 3610 nM | > 10000 nM | 90 nM
10 | Cc1cccc(-c2c(F)cc3c(N4C[C@H]5CC[C@@H](C4)N5)nc(OC[C@@]45CCCN4C[C@H](F)C5)nc3c2F)c1C(F)(F)F [Example 149, 4-((1R,5S)-3,8-diazabicyclo[3.2.1]octan-3-yl)-6,8-difluoro-2-(((2R,7aS)-2-fluorotetrahydro-1H-pyrrolizin-7a(5H)-yl)methoxy)-7-(3-methyl-2-(trifluoromethyl)phenyl)quinazoline] | 2 nM | 680 nM | 939 nM | 5 nM
11 | Cc1cccc2cccc(-c3c(F)cc4c(N5[C@@H]6CC[C@H]5CNC6)nc(OC[C@@]56CCCN5C[C@H](F)C6)nc4c3F)c12 [Example 23, 4-((1R,5S)-3,8-diazabicyclo[3.2. 1]octan-8-yl)-6,8-difluoro-2-(((2R,7aS)-2-fluorotetrahydro-1H-pyrrolizin-7a(5H)-yl)methoxy)-7-(8-methylnaphthalen-1-yl)quinazoline] | 19 nM | 2600 nM | 10300 nM | 44 nM
12 | Oc1cc(-c2ccc3c(N4C[C@H]5CC[C@@H](C4)N5)nc(OC[C@@]45CCCN4C[C@H](F)C5)nc3c2F)c2ccccc2c1F [Example 221, 4-(4-((1R,5S)-3,8-diazabicyclo[3.2.1]octan-3-yl)-8-fluoro-2-(((2R,7aS)-2-fluorotetrahydro-1H-pyrrolizin-7a(5H)-yl)methoxy)quinazolin-7-yl)-1-fluoronaphthalen-2-ol] | 1 nM | 325 nM | 139 nM | 1 nM
13 | Cc1c(-c2cc(O)cc3ccc(F)c(F)c23)ccc2c(N3C[C@H]4CC[C@@H](C3)N4)nc(OC[C@@]34CCCN3C[C@H](F)C4)nc12 [Example 97, 4-(4-((1R,5S)-3,8-diazabicyclo[3.2. 1]octan-3-yl)-2-(((2R,7aS)-2-fluorotetrahydro-1H-pyrrolizin-7a(5H)-yl)methoxy)-8-methylquinazolin-7-yl)-5,6-difluoronaphthalen-2-ol] | 6 nM | 178 nM | 69 nM | 6 nM
14 | CCc1c(F)ccc2cc(O)cc(-c3c(F)cc4c(N5[C@@H]6CC[C@H]5CNC6)nc(OC[C@@]56CCCN5C[C@H](F)C6)nc4c3F)c12 [Example 150, 4-(4-((1R,5S)-3,8-diazabicyclo[3.2.1]octan-8-yl)-6,8-difluoro-2-(((2R,7aS)-2-fluorotetrahydro-1H-pyrrolizin-7a(5H)-yl)methoxy)quinazolin-7-yl)-5-ethyl-6-fluoronaphthalen-2-ol] | 3 nM | 94 nM | 30 nM | 3 nM
